The results in this text go back to patent publication US11389438B2 (CHDI Foundation, Inc., priority 2019, dated 2022).

SMILES strings stand for the structures. pIC50, pKd: −log10 of the molar value. Where two headings read alike, the source gives them in different places. Some results are limits rather than exact numbers.

Data set [1] has as its target pre-formed polyQ46 or Exon1-polyQ46 aggregates (mHTT) (Homo sapiens, UniProt P42858, INS38QQQQQQQQQQQQQQQQQQQQQQQQQ). As to the kind of experiment: Q46_RBA radioligand binding assay (displacement of [3H]-radioligand). As to the method: Binding of W to mHTT. A radioligand binding assay was developed to screen for compounds which can efficiently displace a radioligand detailed elsewhere (see, e.g., U.S. Patent Publication No. from US 2017/0292150) pre-formed polyQ46 or Exon1-polyQ46 aggregates (Q46_RBA).
Aggregation of polyQ peptides is initiated by cleavage of the tag from a GST-polyQ46 or from a MBP-Exon1-polyQ46 fusion protein. The pre-formed aggregates are then incubated with compounds which compete with the [^3H]-radiolabelled ligand for binding to the aggregates. The readout is a scintillation based MicroBeta measurement of radioligand bound to aggregates. The activity was indicated as: +++, <100 nM; ++, 100-500 nM, +, >500 nM.

In data set [2] the target is VHL complex (VHL, Elongin B, Elongin C, Cul2, Rbx1) (Homo sapiens (Human), UniProt P40337). Briefly: VHL SPR assay. The format is binding. The following applies: immobilized VHL complex; read-out: VHL SPR Kd. From the text:
(§1) Surface Plasmon Resonance (SPR) assays have been developed to test the affinity (KD) of VHL or CRBN-based compounds to respective recombinant ligase complex/domain.
(§2) The assays are based on surface plasmon resonance (SPR), which enables to measure the changes of the local refractive index due to changes of molecular mass on a gold chip surface in the case of a binding event and in a flowing system. To detect binding between both partners, the respective E3 ligase is immobilized to the chip surface, while the test compounds are flown over the chip surface at a steady velocity. The detected changes in the RU response are indicative of the binding event and are concentration dependent.
(§3) These tags provide the anchor for the capturing process to either an NTA or Streptavidin coated chip surface (immobilization level of 3,000-5,000 RU). Because of the rather complex structure of the VHL complex, it was additionally coupled to the chip surface by amino coupling to prevent any protein loss by disruption of the complex in the flowing system.
(§4) To detect binding of compounds and extract dissociation constants KD for the tested compounds to the immobilized E3 ligase, concentration response curves of the compounds were recorded. Compounds were usually tested in 10-pt dilutions up to 20 μM final concentration in assay buffer and were flown over the chip at 30 μL/min. The contact time for each cycle includes 90 s for association and 200 s for dissociation of compounds.
(§5) In the following tables, the Kd values are indicated as: +++, <100 nM; ++, 100-500 nM, +, >500 nM.

Data set [3] has as its target HTT-Exon1-Q73-EGFP in HeLa cells (soluble mHTT) (Homo sapiens (Human), UniProt P42858, INS38QQQQQQQQQQQQQQQQQQQQQQQQQQQQQQQQQQQQQQQQQQQQQQQQQQQQ). As to the kind of experiment: HTT degradation assay, soluble mHTT MSD assay. Format: cell-based. The following applies: HeLa cells transfected with Exon1-Q73-EGFP, 22 hr, 0.01-10 μM. How it is done:
(§6) Compounds described herein were tested for efficacy in HTT-lowering in human HeLa cells transiently overexpressing HTT-Exon1-polyQn proteins. For HTT degradation experiments HeLa cells were transiently transfected with pcDNA3.1(+)-hHTT-E1mixQn-EGFP plasmids for transient expression of HTT-Exon1 proteins of different polyQ length (HTT-exon1-Q23/73/145-EGFP). Two hours after transfection the cells were treated with test compounds at 7 concentrations from 0.01 μM to 10 μM (final assay concentration)+DMSO control. After a 22 hr incubation with test compounds the cells were washed with 1×PBS and lysed in MSD lysis buffer (150 mM NaCl; 20 mM Tris ph 7.5; 1 mM EDTA, 1 mM EGTA; 1% Triton X-100, 1× Phosphatase Inh. Cocktail 2, 1× Phosphatase Inh. Cocktail 3, 1× Protease Inh. Cocktail, 10 mM NaF, 1 mM PMSF) for 30 min on ice. […]
(§7) After an additional washing step, 10 μL per sample were transferred to each well of the antibody-coated MSD plate and incubated with shaking for 1 h at RT. […] After washing three times with washing buffer, 35 μL of read buffer T with surfactant (Meso Scale Discovery) were added to each well. […] The obtained readout is the MSD signal intensity for each well. […]

The target in data set [4] is HTT-Exon1-Q73-EGFP in HeLa cells (aggregated HTT) (Homo sapiens (Human), UniProt P42858, INS38QQQQQQQQQQQQQQQQQQQQQQQQQQQQQQQQQQQQQQQQQQQQQQQQQQQQ). As to the kind of experiment: HTT degradation assay, aggregated HTT MSD assay. The format is cell-based. The following applies: HeLa cells transfected with Exon1-Q73-EGFP, 22 hr, 0.01-10 μM. How it is done:
as §6, §7

In data set [5] the target is mouse CRBN thalidomide binding domain (mCRBN-TBD) (Mus musculus (Mouse), UniProt Q8C7D2). As to the kind of experiment: CRBN SPR assay. As to conditions: immobilized mCRBN-TBD.
Text: as §1, §2, §3, §4, §5

[6] abbreviates: class symbols, read-out: Q46_RBA IC50.

mouse CRBN thalidomide binding domain (mCRBN-TBD), sequence (Q8C7D2 321-429): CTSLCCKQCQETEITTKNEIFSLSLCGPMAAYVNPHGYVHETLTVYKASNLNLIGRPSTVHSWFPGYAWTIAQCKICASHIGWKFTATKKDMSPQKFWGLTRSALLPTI
VHL complex (VHL, Elongin B, Elongin C, Cul2, Rbx1), sequence (P40337 whole entry, looked up): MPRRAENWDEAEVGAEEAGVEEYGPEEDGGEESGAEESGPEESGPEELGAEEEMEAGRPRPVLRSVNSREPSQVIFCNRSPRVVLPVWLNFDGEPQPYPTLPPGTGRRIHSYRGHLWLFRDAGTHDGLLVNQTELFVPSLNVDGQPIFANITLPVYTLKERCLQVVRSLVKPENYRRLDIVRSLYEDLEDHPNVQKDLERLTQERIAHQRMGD
VHL complex (VHL, Elongin B, Elongin C, Cul2, Rbx1), sequence (Q15370 whole entry partner, looked up): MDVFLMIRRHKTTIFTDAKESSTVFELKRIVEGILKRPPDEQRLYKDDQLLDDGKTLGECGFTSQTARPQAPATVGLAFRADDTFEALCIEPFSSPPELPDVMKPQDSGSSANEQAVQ
VHL complex (VHL, Elongin B, Elongin C, Cul2, Rbx1), sequence (Q15369 whole entry partner, looked up): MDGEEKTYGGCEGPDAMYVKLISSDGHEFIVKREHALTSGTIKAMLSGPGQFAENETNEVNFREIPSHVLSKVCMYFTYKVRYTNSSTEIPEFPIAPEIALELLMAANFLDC
VHL complex (VHL, Elongin B, Elongin C, Cul2, Rbx1), sequence (Q13617 whole entry partner, looked up): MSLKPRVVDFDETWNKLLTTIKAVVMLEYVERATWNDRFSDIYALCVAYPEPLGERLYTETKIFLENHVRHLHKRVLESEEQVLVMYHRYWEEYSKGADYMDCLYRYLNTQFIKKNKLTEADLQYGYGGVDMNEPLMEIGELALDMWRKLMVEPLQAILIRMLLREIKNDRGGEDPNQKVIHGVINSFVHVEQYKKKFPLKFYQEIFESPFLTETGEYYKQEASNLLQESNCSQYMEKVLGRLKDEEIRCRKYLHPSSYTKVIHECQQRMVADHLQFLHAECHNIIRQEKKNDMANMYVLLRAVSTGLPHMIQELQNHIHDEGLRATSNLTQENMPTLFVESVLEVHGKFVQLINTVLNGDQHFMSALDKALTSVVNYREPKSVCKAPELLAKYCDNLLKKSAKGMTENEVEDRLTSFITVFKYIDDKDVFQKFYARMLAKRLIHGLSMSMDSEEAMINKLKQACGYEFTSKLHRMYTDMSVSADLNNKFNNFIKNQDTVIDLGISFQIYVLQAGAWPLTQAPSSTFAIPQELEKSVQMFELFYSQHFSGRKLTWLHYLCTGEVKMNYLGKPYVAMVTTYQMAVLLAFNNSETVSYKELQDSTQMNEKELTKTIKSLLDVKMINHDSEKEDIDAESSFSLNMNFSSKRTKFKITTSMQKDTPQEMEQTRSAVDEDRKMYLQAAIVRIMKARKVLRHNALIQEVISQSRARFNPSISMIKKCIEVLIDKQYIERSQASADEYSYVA
VHL complex (VHL, Elongin B, Elongin C, Cul2, Rbx1), sequence (P62877 whole entry partner, looked up): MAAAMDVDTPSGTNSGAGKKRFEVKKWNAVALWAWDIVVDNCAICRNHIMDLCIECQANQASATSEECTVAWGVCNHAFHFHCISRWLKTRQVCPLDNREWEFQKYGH
HTT-Exon1-Q73-EGFP in HeLa cells (soluble mHTT), sequence (P42858 other isoform, or with tags, fused parts or gaps limits assumed, stated change not applied): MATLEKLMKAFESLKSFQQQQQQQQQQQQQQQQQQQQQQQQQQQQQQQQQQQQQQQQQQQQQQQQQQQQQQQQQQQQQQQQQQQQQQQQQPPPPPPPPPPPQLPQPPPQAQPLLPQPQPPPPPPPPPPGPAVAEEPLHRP
HTT-Exon1-Q73-EGFP in HeLa cells (aggregated HTT), sequence (P42858 other isoform, or with tags, fused parts or gaps limits assumed, stated change not applied): as above

Turning to `CNc1c(-c2cn3c(n2)sc2cc(OCCOCC(=O)N[C@H](C(=O)N4C[C@H](O)C[C@H]4C(=O)NCc4ccc(-c5scnc5C)cc4)C(C)(C)C)ccc23)nc2cc(C#N)ccn12` [Compound 1], in data set [1], the pIC50 is greater than 7.00. The negative-log Kd (pKd) in data set [2] was 6.30 to 7.00. Besides, the “Reduction of soluble mHTT Exon1-Q73 levels” value in data set [3] is reported as “confirmed”. In addition, in data set [4], the “Reduction of aggregated mHTT Exon1-Q73 levels” value is given as “confirmed”.

In turn, `CNc1c(-c2cn3c(n2)sc2cc(OCCOCC(=O)N[C@@H](C(=O)N4C[C@@H](O)C[C@@H]4C(=O)NCc4ccc(-c5scnc5C)cc4)C(C)(C)C)ccc23)nc2cc(C#N)ccn12` [Compound 10] showed a pIC50 in data set [1] greater than 7.00. Moreover, in data set [3], the “Reduction of soluble mHTT Exon1-Q73 levels” value is listed as “less active”.

Compound `CN1C(=O)CCC(N2C(=O)c3cccc(NCCOCCOCCOc4ccc(COc5ccc6oc(-c7ccc(=O)n(C)n7)nc6c5)nc4)c3C2=O)C1=O` (stereo not drawn) [Compound 30] showed a pIC50 in data set [1] greater than 7.00. In data set [5], this compound gave a pKd of less than 6.30.

Regarding `Cn1nc(-c2nc3cc(OCc4ccc(OCCOCCOCCNc5cccc6c5C(=O)N(C5CCC(=O)NC5=O)C6=O)cn4)ccc3o2)ccc1=O` (stereo not drawn) [Compound 31, 2-(2,6-Dioxopiperidin-3-yl)-4-({2-[2-(2-{[6-({[2-(1-methyl-6-oxo-1,6-dihydropyridazin-3-yl)-1,3-benzoxazol-5-yl]oxy}methyl)pyridin-3-yl]oxy}ethoxy)ethoxy]ethyl}amino)-2,3-dihydro-1H-isoindole-1,3-dione], the pIC50 in data set [1] is greater than 7.00. In data set [5], this compound had a pKd of 6.30 to 7.00.

Consider `Cn1nc(-c2nc3cc(NC(=O)c4ccc(OCCOCCOCCOCCOCCOCCNc5cccc6c5C(=O)N(C5CCC(=O)NC5=O)C6=O)cn4)ccc3o2)ccc1=O` (stereo not drawn) [Compound 32], for which, in data set [1], the pIC50 was greater than 7.00. This compound also showed a pKd in data set [5] of 6.30 to 7.00.

Regarding `Cn1nc(-c2nc3cc(NC(=O)c4ccc(OCCOCCOCCNc5cccc6c5C(=O)N(C5CCC(=O)NC5=O)C6=O)cn4)ccc3o2)ccc1=O` (stereo not drawn) [Compound 33, 5-{2-[2-(2-{[2-(2,6-Dioxopiperidin-3-yl)-1,3-dioxo-2,3-dihydro-1H-isoindol-4-yl]amino}ethoxy)ethoxy]ethoxy}-N-[2-(1-methyl-6-oxo-1,6-dihydropyridazin-3-yl)-1,3-benzoxazol-5-yl]pyridine-2-carboxamide], the pIC50 in data set [1] is greater than 7.00. This compound also showed a pKd in data set [5] of 6.30 to 7.00.

On to `Cn1nc(-c2nc3cc(NC(=O)c4ccc(OCCOCCOCCOCCOCCOCCOCCOCCOCCOCCOCCOCCNc5cccc6c5C(=O)N(C5CCC(=O)NC5=O)C6=O)cn4)ccc3o2)ccc1=O` (stereo not drawn) [Compound 34], for which the pIC50 in data set [1] (setting [6]) is greater than 7.00. The compound further showed a pKd in data set [5] of less than 6.30.

The compound `Cn1nc(-c2nc3cc(NC(=O)c4ccc(OCCOCCOCCOCCNc5cccc6c5C(=O)N(C5CCC(=O)NC5=O)C6=O)cn4)ccc3o2)ccc1=O` (stereo not drawn) [Compound 36] had a pIC50 in data set [1] greater than 7.00. This compound also showed a pKd in data set [5] of 6.30 to 7.00.

On to `Cn1nc(-c2nc3cc(NC(=O)c4ccc(OCCOCCOCCOCCOCCOCCOCCOCCOCCOCCOCCOCCOCCOCCOCCOCCNc5cccc6c5C(=O)N(C5CCC(=O)NC5=O)C6=O)cn4)ccc3o2)ccc1=O` (stereo not drawn) [Compound 37], for which the pIC50 in data set [1] (setting [6]) was greater than 7.00. The same compound gave a pKd in data set [5] of 6.30 to 7.00.

The compound `Cn1nc(-c2nc3cc(NC(=O)c4ccc(OCCOCCOCCOCCOCCOCCOCCOCCOCCNc5cccc6c5C(=O)N(C5CCC(=O)NC5=O)C6=O)cn4)ccc3o2)ccc1=O` (stereo not drawn) [Compound 38] showed a pIC50 in data set [1] greater than 7.00. The compound also had a pKd in data set [5] of 6.30 to 7.00.

The compound `CN1C(=O)CCC(N2C(=O)c3cccc(NCCOCCOCCOCCOCCOCCOc4ccc(C(=O)Nc5ccc6oc(-c7ccc(=O)n(C)n7)nc6c5)nc4)c3C2=O)C1=O` (stereo not drawn) [Compound 39] gave a pIC50 in data set [1] greater than 7.00. In addition, the pKd in data set [5] was less than 6.30.

Regarding `CN1C(=O)CCC(N2C(=O)c3cccc(NCCOCCOCCOCCOCCOCCOCCOCCOCCOCCOCCOCCOc4ccc(C(=O)Nc5ccc6oc(-c7ccc(=O)n(C)n7)nc6c5)nc4)c3C2=O)C1=O` (stereo not drawn) [Compound 40], the negative logarithm of the IC50 (pIC50) in data set [1] (setting [6]) is greater than 7.00. The pKd in data set [5] was less than 6.30.

The compound `Cc1ncsc1-c1ccc(CNC(=O)[C@@H]2C[C@@H](O)CN2C(=O)[C@@H](NC(=O)COCCOCCOCCOc2ccc(COc3ccc4oc(N5CCn6ccnc6C5)nc4c3)nc2)C(C)(C)C)cc1` [Compound 58, (2S,4R)-1-((S)-2-(tert-butyl)-14-((6-(((2-(5,6-dihydroimidazo[1,2-a]pyrazin-7(8H)-yl)benzo[d]oxazol-5-yl)oxy)methyl)pyridin-3-yl)oxy)-4-oxo-6,9,12-trioxa-3-azatetra-decan-1-oyl)-4-hydroxy-N-(4-(4-methylthiazol-5-yl)benzyl)-pyrrolidine-2-carboxamide] had a pIC50 in data set [1] of 6.30 to 7.00. The pKd in data set [2] was less than 6.30.

Take `CN1C(=O)CCC(N2C(=O)c3cccc(NCCOCCOCCOc4ccc(C(=O)Nc5ccc6oc(-c7ccc(=O)n(C)n7)nc6c5)nc4)c3C2=O)C1=O` (stereo not drawn) [Compound 70]: the pIC50 in data set [1] is greater than 7.00. In data set [5], this compound showed a pKd of less than 6.30.
